Experimental data reported in a compilation of properties of binary mixtures (doi:10.1021/acs.jpcb.0c03296).

Assay: xn = mol fraction of the nth substance listed
Conditions: 100 kPa

C[N+](C)(C)CCO.O=S(=O)([N-]S(=O)(=O)C(F)(F)F)C(F)(F)F + OCCO
Conditions	electrical conductivity, x1 = 0.14 [S/m]	electrical conductivity, x1 = 0.2 [S/m]	electrical conductivity, x1 = 0.333 [S/m]	viscosity, x1 = 0.14 [mPa·s]	viscosity, x1 = 0.2 [mPa·s]	viscosity, x1 = 0.333 [mPa·s]
298.1 K	0.313	0.402	0.36	22.27	28.99	30.56
303 K	–	0.494	0.442	–	23.44	24.82
308.1 K	0.456	0.6	0.532	14.46	18.97	20.46
313 K	0.54	0.715	0.635	12.12	15.74	17.15
318.1 K	0.631	0.839	0.745	10.36	13.28	14.48
323 K	–	0.975	0.866	–	11.32	12.28
328.1 K	0.838	1.12	1	7.73	9.77	10.7
